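These data come from cells grown in 96-well plates and exposed to compound for 48 hours at five concentrations. Abbreviation: GI50, concentration required for 50% inhibition of growth. At the TGI there is no net growth.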
Columns and labels:
Test in all cases: growth of human tumour cells (NCI), 48 h
HCT-116 colon = system: HCT-116 colon
DU-145 prostate = system: DU-145 prostate
UACC-257 melanoma = system: UACC-257 melanoma
HOP-92 NSCLC = system: HOP-92 NSCLC
K-562 leukemia = system: K-562 leukemia
HOP-62 NSCLC = system: HOP-62 NSCLC
HL-60(TB) leukemia = system: HL-60(TB) leukemia
PC-3 prostate = system: PC-3 prostate
SN12C renal = system: SN12C renal
UO-31 renal = system: UO-31 renal
BT-549 breast = system: BT-549 breast
MALME-3M melanoma = system: MALME-3M melanoma
OVCAR-5 ovarian = system: OVCAR-5 ovarian
HT29 colon = system: HT29 colon
M14 melanoma = system: M14 melanoma
SK-OV-3 ovarian = system: SK-OV-3 ovarian
RXF 393 renal = system: RXF 393 renal
MDA-MB-468 breast = system: MDA-MB-468 breast
SR leukemia = system: SR leukemia
CCRF-CEM leukemia = system: CCRF-CEM leukemia
IGROV1 ovarian = system: IGROV1 ovarian
RPMI-8226 leukemia = system: RPMI-8226 leukemia
EKVX NSCLC = system: EKVX NSCLC
OVCAR-3 ovarian = system: OVCAR-3 ovarian
MDA-MB-435 = system: MDA-MB-435
NCI-H23 lung = system: NCI-H23 lung
CAKI-1 renal = system: CAKI-1 renal
UACC-62 melanoma = system: UACC-62 melanoma
OVCAR-4 ovarian = system: OVCAR-4 ovarian
MCF7 breast = system: MCF7 breast
SW-620 colon = system: SW-620 colon
COLO 205 colon = system: COLO 205 colon
TK-10 renal = system: TK-10 renal
SF-268 CNS = system: SF-268 CNS
LOX IMVI melanoma = system: LOX IMVI melanoma
SNB-19 CNS = system: SNB-19 CNS
KM12 colon = system: KM12 colon
HCT-15 colon = system: HCT-15 colon
NCI-H522 lung = system: NCI-H522 lung
NCI-H460 lung = system: NCI-H460 lung
HCC-2998 colon = system: HCC-2998 colon
NCI/ADR-RES ovarian = system: NCI/ADR-RES ovarian
SK-MEL-2 melanoma = system: SK-MEL-2 melanoma
SK-MEL-28 melanoma = system: SK-MEL-28 melanoma
NCI-H226 lung = system: NCI-H226 lung
SNB-75 CNS = system: SNB-75 CNS
OVCAR-8 ovarian = system: OVCAR-8 ovarian
MDA-MB-231 breast = system: MDA-MB-231 breast
U251 CNS = system: U251 CNS
HS 578T breast = system: HS 578T breast
MOLT-4 leukemia = system: MOLT-4 leukemia
ACHN renal = system: ACHN renal
SK-MEL-5 melanoma = system: SK-MEL-5 melanoma
T-47D breast = system: T-47D breast
SF-295 CNS = system: SF-295 CNS
SF-539 CNS = system: SF-539 CNS
A498 renal = system: A498 renal
786-0 renal = system: 786-0 renal
A549 NSCLC = system: A549 NSCLC

Cc1ccc(O)cc1Nc1nc(SCCN2CCOCC2)nc2c1cnn2CC(Cl)c1ccc(Br)cc1 (stereo not drawn)
GI50 (HCT-116 colon): 3.46 µM | TGI (HCT-116 colon): 13.3 µM | GI50 (DU-145 prostate): 8.92 µM | TGI (DU-145 prostate): > 100 µM | GI50 (UACC-257 melanoma): 9.87 µM | TGI (UACC-257 melanoma): 24.7 µM | GI50 (HOP-92 NSCLC): 2.06 µM | TGI (HOP-92 NSCLC): 8.12 µM | GI50 (K-562 leukemia): 0.0575 µM | TGI (K-562 leukemia): 2.73 µM | GI50 (HOP-62 NSCLC): 4.41 µM | TGI (HOP-62 NSCLC): 30.2 µM | GI50 (HL-60(TB) leukemia): 5.18 µM | TGI (HL-60(TB) leukemia): 28.4 µM | GI50 (PC-3 prostate): 4.98 µM | TGI (PC-3 prostate): 46.1 µM | GI50 (SN12C renal): 2.12 µM | TGI (SN12C renal): 13.3 µM | GI50 (UO-31 renal): 2.25 µM | TGI (UO-31 renal): 31.5 µM | GI50 (BT-549 breast): 10.1 µM | TGI (BT-549 breast): 23.2 µM | GI50 (MALME-3M melanoma): 3.71 µM | TGI (MALME-3M melanoma): 16.6 µM | GI50 (OVCAR-5 ovarian): 3.96 µM | TGI (OVCAR-5 ovarian): 18.9 µM | GI50 (HT29 colon): 3.36 µM | TGI (HT29 colon): 13.6 µM | GI50 (M14 melanoma): 2.85 µM | TGI (M14 melanoma): 15.2 µM | GI50 (SK-OV-3 ovarian): 13.6 µM | TGI (SK-OV-3 ovarian): 73.4 µM | GI50 (RXF 393 renal): 0.282 µM | TGI (RXF 393 renal): 3.71 µM | GI50 (MDA-MB-468 breast): 1.84 µM | TGI (MDA-MB-468 breast): 4.69 µM | GI50 (SR leukemia): 2.34 µM | TGI (SR leukemia): 17.5 µM | GI50 (CCRF-CEM leukemia): 4.03 µM | TGI (CCRF-CEM leukemia): 39.1 µM | GI50 (IGROV1 ovarian): 2.06 µM | TGI (IGROV1 ovarian): 6.08 µM | GI50 (RPMI-8226 leukemia): 4.37 µM | TGI (RPMI-8226 leukemia): 28.4 µM | GI50 (EKVX NSCLC): 3.93 µM | TGI (EKVX NSCLC): 60.4 µM | GI50 (OVCAR-3 ovarian): 11 µM | TGI (OVCAR-3 ovarian): 64.9 µM | GI50 (MDA-MB-435): 4.72 µM | TGI (MDA-MB-435): 21.5 µM | GI50 (NCI-H23 lung): 6.21 µM | TGI (NCI-H23 lung): 19.5 µM | GI50 (CAKI-1 renal): 3.53 µM | TGI (CAKI-1 renal): 33.1 µM | GI50 (UACC-62 melanoma): 3.05 µM | TGI (UACC-62 melanoma): 15.5 µM | GI50 (OVCAR-4 ovarian): 6.84 µM | TGI (OVCAR-4 ovarian): > 100 µM | GI50 (MCF7 breast): 3.4 µM | TGI (MCF7 breast): 17.3 µM | GI50 (SW-620 colon): 14.6 µM | TGI (SW-620 colon): 78.1 µM | GI50 (COLO 205 colon): 17.6 µM | TGI (COLO 205 colon): 42.2 µM | GI50 (TK-10 renal): 15.8 µM | TGI (TK-10 renal): 32.3 µM | GI50 (SF-268 CNS): 7.04 µM | TGI (SF-268 CNS): > 100 µM | GI50 (LOX IMVI melanoma): 1.52 µM | TGI (LOX IMVI melanoma): 3.49 µM | GI50 (SNB-19 CNS): 5.93 µM | TGI (SNB-19 CNS): 43.4 µM | GI50 (KM12 colon): 7.55 µM | TGI (KM12 colon): 29.8 µM | GI50 (HCT-15 colon): 2.82 µM | TGI (HCT-15 colon): 15.8 µM | GI50 (NCI-H522 lung): 2.87 µM | TGI (NCI-H522 lung): 16.5 µM | GI50 (NCI-H460 lung): 4.26 µM | TGI (NCI-H460 lung): 21.8 µM | GI50 (HCC-2998 colon): 3.93 µM | TGI (HCC-2998 colon): 15.2 µM | GI50 (NCI/ADR-RES ovarian): 3.13 µM | TGI (NCI/ADR-RES ovarian): 17.3 µM | GI50 (SK-MEL-2 melanoma): 11.2 µM | TGI (SK-MEL-2 melanoma): 24.5 µM | GI50 (SK-MEL-28 melanoma): 4.21 µM | TGI (SK-MEL-28 melanoma): 17.4 µM | GI50 (NCI-H226 lung): 3.39 µM | TGI (NCI-H226 lung): 20.4 µM | GI50 (SNB-75 CNS): 1.24 µM | TGI (SNB-75 CNS): 5.11 µM | GI50 (OVCAR-8 ovarian): 4.45 µM | TGI (OVCAR-8 ovarian): 21.2 µM | GI50 (MDA-MB-231 breast): 2.5 µM | TGI (MDA-MB-231 breast): 14.3 µM | GI50 (U251 CNS): 4.85 µM | TGI (U251 CNS): 17.9 µM | GI50 (HS 578T breast): 0.832 µM | TGI (HS 578T breast): 5.67 µM | GI50 (MOLT-4 leukemia): 2.65 µM | TGI (MOLT-4 leukemia): 14.5 µM | GI50 (ACHN renal): 2.21 µM | TGI (ACHN renal): 15.4 µM | GI50 (SK-MEL-5 melanoma): 4.17 µM | TGI (SK-MEL-5 melanoma): 15.9 µM | GI50 (T-47D breast): 2.14 µM | TGI (T-47D breast): > 100 µM | GI50 (SF-295 CNS): 2.36 µM | TGI (SF-295 CNS): 12 µM | GI50 (SF-539 CNS): 3.05 µM | TGI (SF-539 CNS): 13.9 µM | GI50 (A498 renal): 6.88 µM | TGI (A498 renal): 21.7 µM | GI50 (786-0 renal): 6.22 µM | TGI (786-0 renal): 25.4 µM | GI50 (A549 NSCLC): 3.18 µM | TGI (A549 NSCLC): 18.5 µM
